Results from publication PMC9147192, “Small Molecule Arranged Thermal Proximity Coaggregation (smarTPCA)—A Novel Approach to Characterize Protein–Protein Interactions in Living Cells by Similar Isothermal Dose–Responses” (International Journal of Molecular Sciences, 2022).
Where “and” joins values, the source holds several entries; their conditions need not be identical. Equal values may be shown once. Read-outs that look alike come from different tables or passages of the source.

How the values were obtained:
[1] = molecular target: MAPK14 (Homo sapiens, UniProt Q16539); assay: CETSA in HL-60 cell extract, immunoblot; format: binding
MAPK14 (Homo sapiens, UniProt Q16539), sequence (Q16539 whole entry): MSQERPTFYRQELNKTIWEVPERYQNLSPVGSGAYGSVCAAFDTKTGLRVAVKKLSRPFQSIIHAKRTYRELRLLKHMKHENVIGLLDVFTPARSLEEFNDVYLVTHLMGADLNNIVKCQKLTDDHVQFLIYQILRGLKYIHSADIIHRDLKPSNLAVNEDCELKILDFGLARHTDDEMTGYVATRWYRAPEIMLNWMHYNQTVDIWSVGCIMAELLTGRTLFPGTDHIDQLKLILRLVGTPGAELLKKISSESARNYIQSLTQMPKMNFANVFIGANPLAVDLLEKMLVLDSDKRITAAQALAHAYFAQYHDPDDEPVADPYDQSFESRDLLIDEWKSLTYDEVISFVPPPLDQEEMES
Protocol: (§1) For the differentiation of primary and secondary binding effects, CETSA experiments using cell extracts instead of living cells (cell extract test) are proposed in the literature. Therefore, we performed CETSA assays in HL-60 cell extracts under the same conditions as for living cells (Figure 1, Table 1, Supplementary Table S6).
(§2) HL-60 cells were expanded as described above for CETSA and TPP-TR to about 1.25 million cells per ml. 50 mL of the cell suspension, respectively, was transferred into 50 mL conical tubes. After centrifugation (300 rcf, 3 min, r.t.) and removing all of the supernating culture medium, the cells were washed twice with 25 mL PBS (r.t.) by gently resuspending the cells, followed by centrifugation (300 rcf, 3 min, r.t.) and the removal of the supernatant. The cells were transferred into pre-weighed 2 mL LoBind Eppendorf tubes using 1 mL PBS (r.t.), respectively, for resuspending. After centrifugation (300 rcf, 3 min, r.t.) and removing as much as possible of the supernatants, the cell wet weights were determined. The cells were stored at −80 °C after shock-freezing in liquid nitrogen.
(§3) Cell extracts were obtained by four freeze/thaw cycles as described above for CETSA and TPP-TR using 10 µL ice cold PBS supplemented with protease inhibitors per milligram of cell pellet wet weight for the initial resuspension of the pellet, followed by centrifugation (20,000 rcf, 30 min, 4 °C), and the recovery of the supernatant. After determining the protein content, the cell extracts were diluted to 1.8 mg/mL total protein concentration using ice-cold PBS supplemented with protease inhibitors and aliquots of 99 µL in PCR tube strips, and 1.1 mL in LoBind 1.5 mL Eppendorf tubes were shock-frozen in liquid nitrogen and stored at −80 °C or directly processed.
(§4) A fourth aliquot of 1.8 mg/mL HL-60 cell extract was supplemented with 2.2 µL of DMSO. […] After a brief centrifugation using a benchtop centrifuge, the temperature treatment at the ten different temperatures was performed as described in Section 4.1.1.
(§5) Additionally, the preparation of cell extracts containing the fraction of soluble, non-denatured proteins was performed as described in Section 4.1.1. for living cells, but omitting the freeze/thaw steps for cell lysis.
(§6) For each sample set comprising either ten temperature range samples or ten compound concentration range samples, the same volume of the cell extracts containing the fraction of soluble, non-denatured proteins was used for further analysis. This volume was determined using the two lowest temperature samples (36.5 and 41.2 °C) per temperature range sample set so that they contained an average of 5 µg total protein (e.g., 2.78 µL for all temperature range samples of a sample set whose two lowest temperature samples contain an average of 1.8 mg/mL protein). For the compound concentration range experiments, all samples of a set were used for averaging. The calculated volume was respectively transferred into PCR tubes of a tube strip, supplemented with SDS sample buffer (final concentrations: 25 mM dithiothreitol (DTT), 7.5% glycerol, 3% SDS, 37.5 mM Tris/HCl pH 7.0, 0.005% bromophenol blue), incubated for 10 min at r.t. and applied to SDS-PAGE under external cooling in an ice bath (MW marker: PageRuler pre-stained protein ladder (Thermo scientific, Waltham, MA, USA); NuPAGE 4–12% Bis-Tris Gels, 1.0 mm, Midi Protein Gel, 26-well (Thermo fisher scientific); ice cold MOPS SDS running buffer (50 mM MOPS, 50 mM Tris base, 0.1% SDS, 0.003% EDTA (free acid)); 50 V for 15 min, then 200 V for about 1.5 h, i.e., the rest of the run).

[2] = molecular target: T1, MAPKAPK2p (Homo sapiens, UniProt P49137); assay: CETSA in HL-60 cell extract, immunoblot; format: binding
T1 construct: phosphorylation-dependent electrophoretic mobility shift (PDEMS) of MAPKAPK2, which appeared as a double band; endogenous in cells; host or cells: HL-60 (ATCC CCL-240), living cells or cell extract
T1 sequence (P49137 whole entry): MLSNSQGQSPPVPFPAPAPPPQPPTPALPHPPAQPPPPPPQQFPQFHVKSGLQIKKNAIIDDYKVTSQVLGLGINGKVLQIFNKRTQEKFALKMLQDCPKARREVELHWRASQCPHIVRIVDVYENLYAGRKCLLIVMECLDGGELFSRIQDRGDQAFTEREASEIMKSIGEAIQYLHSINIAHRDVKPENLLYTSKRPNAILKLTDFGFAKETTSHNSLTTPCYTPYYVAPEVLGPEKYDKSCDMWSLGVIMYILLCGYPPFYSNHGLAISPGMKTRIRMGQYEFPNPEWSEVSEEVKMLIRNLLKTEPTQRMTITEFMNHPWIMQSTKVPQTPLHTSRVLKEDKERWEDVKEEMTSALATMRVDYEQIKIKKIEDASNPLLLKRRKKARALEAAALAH
T1 sequence (Q16539 2-360 partner): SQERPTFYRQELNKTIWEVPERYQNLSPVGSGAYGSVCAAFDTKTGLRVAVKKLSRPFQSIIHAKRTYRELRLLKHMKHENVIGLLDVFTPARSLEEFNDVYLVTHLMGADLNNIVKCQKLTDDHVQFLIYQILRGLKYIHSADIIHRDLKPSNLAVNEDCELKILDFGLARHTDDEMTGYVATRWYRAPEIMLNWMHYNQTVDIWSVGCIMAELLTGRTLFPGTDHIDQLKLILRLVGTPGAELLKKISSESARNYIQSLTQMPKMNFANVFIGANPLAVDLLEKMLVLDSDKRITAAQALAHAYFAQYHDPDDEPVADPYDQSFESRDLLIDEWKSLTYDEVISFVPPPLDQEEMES
Protocol: as §1, §2, §3, §4, §5, §6

[3] = molecular target: MAPKAPK3 (Homo sapiens, UniProt Q16644); assay: CETSA in HL-60 cell extract, immunoblot; format: binding
MAPKAPK3, sequence (Q16644 whole entry): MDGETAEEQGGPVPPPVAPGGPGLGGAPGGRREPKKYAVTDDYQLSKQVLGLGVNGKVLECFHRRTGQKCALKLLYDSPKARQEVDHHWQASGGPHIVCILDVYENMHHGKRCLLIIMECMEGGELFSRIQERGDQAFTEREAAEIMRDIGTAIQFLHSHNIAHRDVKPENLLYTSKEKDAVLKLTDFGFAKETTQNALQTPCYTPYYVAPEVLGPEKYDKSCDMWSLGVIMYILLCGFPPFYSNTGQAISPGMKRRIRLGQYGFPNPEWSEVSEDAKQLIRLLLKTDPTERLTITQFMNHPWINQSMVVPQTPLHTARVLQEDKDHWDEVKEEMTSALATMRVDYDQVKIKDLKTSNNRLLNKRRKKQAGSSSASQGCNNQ
MAPKAPK3, sequence (Q16539 whole entry partner): as the sequence (Q16539 whole entry) above
Protocol: as §1, §2, §3, §4, §5, §6

[4] = tested on: MAPK14; parameters: method as in Seashore-Ludlow et al., Biochemistry 2018; settings: MAPK14 only, extrapolated to 50°C and extracted from figure 3b; ref Seashore-Ludlow et al., Biochemistry 2018; cited from earlier work
[5] = molecular target: TRAPPC4 (Homo sapiens, UniProt Q9Y296); assay: TPP-CCR in living HL-60 cells
TRAPPC4, sequence (Q9Y296 whole entry): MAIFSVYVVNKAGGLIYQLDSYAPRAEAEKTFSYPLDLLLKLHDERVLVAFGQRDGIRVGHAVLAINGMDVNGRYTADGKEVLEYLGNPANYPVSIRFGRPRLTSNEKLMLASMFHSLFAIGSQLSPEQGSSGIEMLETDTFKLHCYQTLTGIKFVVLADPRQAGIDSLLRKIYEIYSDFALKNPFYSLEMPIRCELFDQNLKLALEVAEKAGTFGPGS

[6] = HL-60 cell extract, 20 µM inhibitor, immunoblot
[7] = HL-60 cell extract, 20 µM inhibitor, immunoblot, 20 µM
[8] = MAPKAPK2p, cell extract, immunoblot
[9] = MAPKAPK3, cell extract, immunoblot

**Q.** With `Cn1c(NC[C@@H](N)Cc2ccccc2)nc(-c2ccncc2)c(-c2ccc3ccccc3c2)c1=O` [AMG-548] as the molecule, how does the ΔTm at 20 µM ([1]; 20 µM inhibitor, read-out: ΔTm to DMSO in Cell Extract Compared to Living Cells (MAPK14)) read?
**A.** -1.16 °C

**Q.** What about the “Tm difference vs DMSO, same protein” value ([1]; CETSA in cell extract (lysate), MAPK14, inhibitor minus DMSO) of the same molecule?
**A.** 13.60

**Q.** What about the “Tm (fitted melting curve)” value ([1]; CETSA in cell extract (lysate), MAPK14, in °C) of the same molecule?
**A.** 59.15

**Q.** And the “Tm (MAPK14)” value [1, 6]?
**A.** 59.15 °C

**Q.** What about the ΔTm at 20 µM ([1]; HL-60 cell extract, 20 µM inhibitor, immunoblot, read-out: ΔTm to DMSO (MAPK14)) of the same molecule?
**A.** 13.6 °C

**Q.** And the Tm ([1]; MAPK14, cell extract, immunoblot)?
**A.** 59.15 °C

**Q.** What about the “Tm difference vs DMSO, same protein” value ([2]; CETSA in cell extract (lysate), MAPKAPK2p, inhibitor minus DMSO) of the same molecule?
**A.** 2.82

**Q.** And the “Tm (fitted melting curve)” value ([2]; CETSA in cell extract (lysate), MAPKAPK2p, in °C)?
**A.** 50.95

**Q.** What about the “Tm (MAPKAPK2p)” value [2, 6] of the same molecule?
**A.** 50.95 °C

**Q.** And the “ΔTm to DMSO (MAPKAPK2p)” value [2, 7]?
**A.** 2.82 °C

**Q.** And the “ΔTm to DMSO (MAPKAPK2p)” value ([2]; HL-60 cell extract, 20 µM inhibitor, immunoblot, listed as AMG548, 20 µM)?
**A.** 2.8 °C

**Q.** And the Tm [2, 8]?
**A.** 50.95 °C

**Q.** What about the “ΔTm to DMSO” value [2, 8] of the same molecule?
**A.** 2.82 °C

**Q.** And the “ΔTm to DMSO in Cell Extract Compared to Living Cells (MAPKAPK3)” value ([3]; 20 µM inhibitor)?
**A.** −3.99 °C

**Q.** What about the “Tm difference vs DMSO, same protein” value ([3]; CETSA in cell extract (lysate), MAPKAPK3, inhibitor minus DMSO) of the same molecule?
**A.** 2.63

**Q.** What about the “Tm (fitted melting curve)” value ([3]; CETSA in cell extract (lysate), MAPKAPK3, in °C) of the same molecule?
**A.** 49.31

**Q.** What about the “Tm (MAPKAPK3)” value [3, 6] of the same molecule?
**A.** 49.31 °C

**Q.** What about the “ΔTm to DMSO (MAPKAPK3)” value [3, 7] of the same molecule?
**A.** 2.6 °C and 2.63 °C

**Q.** And the “ΔTm to DMSO in cell extract compared to living cells” value ([3]; MAPKAPK3, cell extract minus living cells)?
**A.** -3.99 °C

**Q.** And the Tm [3, 9]?
**A.** 49.31 °C

**Q.** What about the “ΔTm to DMSO” value [3, 9] of the same molecule?
**A.** 2.63 °C

**Q.** What about the “pEC50, Cell extract” value [4] of the same molecule?
**A.** 8.14

**Q.** And the EC50 [5]?
**A.** 407 nM

**Q.** What about the “Hill slope (TRAPPC4)” value ([5]; living HL-60 cells, […] °C, TMT-MS) of the same molecule?
**A.** 0.43
